Test results: ChEMBL document CHEMBL2390840, “An analysis of the synthetic tryptamines AMT and 5-MeO-DALT: emerging 'Novel Psychoactive Drugs'” (Bioorg Med Chem Lett, 2013)

Legend:
[1] = molecular target: Cannabinoid receptor 1 (Homo sapiens, UniProt P21554); assay: Displacement of [3H]CP55940 from human recombinant CB1 receptor expressed in HEK293 cells coexpressing FLP-IN after 1 to […] by scintillation counting analysis; assay type: cell-based
[2] = molecular target: Glutamate NMDA receptor; assay: Displacement of [3H]MK801 from NMDA receptor PCP binding site in rat brain after 1 to […] by scintillation counting analysis; assay type: tissue-based
[3] = molecular target: Muscarinic acetylcholine receptor M1 (Homo sapiens, UniProt P11229); assay: Displacement of [3H]QNB from human recombinant muscarinic M1 receptor expressed in CHO cells after 1 to […] by scintillation counting analysis; assay type: cell-based
[4] = molecular target: T1, 5-hydroxytryptamine receptor 2C (Homo sapiens, UniProt P28335); assay: Agonist activity at human 5-HT2C receptor expressed in HEK293 cells assessed as increase in calcium mobilization by FLIPR assay; assay type: functional, cell-based
T1 sequence (P28335 whole entry): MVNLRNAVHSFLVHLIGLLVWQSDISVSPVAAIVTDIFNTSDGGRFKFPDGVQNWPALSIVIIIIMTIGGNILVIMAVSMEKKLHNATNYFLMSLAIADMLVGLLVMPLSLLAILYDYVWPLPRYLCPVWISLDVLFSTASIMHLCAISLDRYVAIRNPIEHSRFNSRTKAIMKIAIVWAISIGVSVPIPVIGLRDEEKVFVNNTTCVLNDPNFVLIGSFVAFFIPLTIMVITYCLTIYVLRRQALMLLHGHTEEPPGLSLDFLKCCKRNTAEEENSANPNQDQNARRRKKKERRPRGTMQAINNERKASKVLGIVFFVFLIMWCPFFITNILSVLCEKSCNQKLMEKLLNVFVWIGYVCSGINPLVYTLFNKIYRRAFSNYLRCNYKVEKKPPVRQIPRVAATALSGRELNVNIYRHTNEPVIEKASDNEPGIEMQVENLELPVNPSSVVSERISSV

[5] = molecular target: 5-hydroxytryptamine receptor 1A (Homo sapiens, UniProt P08908); assay: Displacement of [3H]8-OH-DPAT from human recombinant 5-HT1A receptor expressed in CHO cells after 1 to […] by scintillation counting analysis; assay type: cell-based
Chain of 5-hydroxytryptamine receptor 1A (P08908 whole entry): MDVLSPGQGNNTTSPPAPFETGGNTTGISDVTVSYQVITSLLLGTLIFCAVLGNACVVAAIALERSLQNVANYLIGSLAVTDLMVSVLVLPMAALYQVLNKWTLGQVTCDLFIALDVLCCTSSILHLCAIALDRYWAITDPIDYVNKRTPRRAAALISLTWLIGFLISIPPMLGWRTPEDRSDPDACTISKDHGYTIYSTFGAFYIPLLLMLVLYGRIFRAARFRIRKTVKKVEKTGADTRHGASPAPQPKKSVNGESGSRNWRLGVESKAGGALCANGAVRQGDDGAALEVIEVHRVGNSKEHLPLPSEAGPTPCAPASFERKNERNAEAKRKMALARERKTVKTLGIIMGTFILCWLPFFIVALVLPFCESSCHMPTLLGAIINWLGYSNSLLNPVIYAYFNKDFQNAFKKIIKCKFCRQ

[6] = Displacement of [3H]Baclofen from GABAB receptor in rat brain after 1 to […] by scintillation counting analysis; assay type: tissue-based
[7] = molecular target: Sodium-dependent serotonin transporter (Homo sapiens, UniProt P31645); assay: Displacement of [3H]Citalopram from human recombinant serotonin transporter expressed in HEK293 cells after 1 to […] by scintillation counting analysis; assay type: cell-based
[8] = molecular target: Histamine H2 receptor (Homo sapiens, UniProt P25021); assay: Displacement of [3H]Tiotidine from human recombinant histamine H2 receptor expressed in HEK293 cells after 1 to […] by scintillation counting analysis; assay type: cell-based
[9] = molecular target: Beta-3 adrenergic receptor (Homo sapiens, UniProt P13945); assay: Displacement of [125I]Iodopindolol from human recombinant adrenergic beta3 receptor expressed in HEK293 cells coexpressing FLP-IN after 1 to […] by scintillation counting analysis; assay type: cell-based
[10] = molecular target: Muscarinic acetylcholine receptor M2 (Homo sapiens, UniProt P08172); assay: Displacement of [3H]QNB from human recombinant muscarinic M2 receptor expressed in CHO cells after 1 to […] by scintillation counting analysis; assay type: cell-based
[11] = molecular target: Sigma non-opioid intracellular receptor 1 (Cavia porcellus, UniProt Q60492); assay: Displacement of [3H]Pentazocine from guinea pig sigma 1 receptor after 1 to […] by scintillation counting analysis
Chain of Sigma non-opioid intracellular receptor 1 (Q60492 whole entry): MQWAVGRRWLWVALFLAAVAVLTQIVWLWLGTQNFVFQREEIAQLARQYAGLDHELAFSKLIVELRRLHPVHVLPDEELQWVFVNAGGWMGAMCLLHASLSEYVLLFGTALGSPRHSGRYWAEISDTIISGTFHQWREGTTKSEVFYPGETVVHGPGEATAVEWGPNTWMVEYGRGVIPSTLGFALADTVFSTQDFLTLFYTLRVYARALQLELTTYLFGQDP

[12] = molecular target: Histamine H3 receptor (Homo sapiens, UniProt Q9Y5N1); assay: Displacement of [3H]alpha-methylhistamine from human recombinant histamine H3 receptor expressed in HEK293 cells after 1 to […] by scintillation counting analysis; assay type: cell-based
Chain of Histamine H3 receptor (Q9Y5N1 whole entry): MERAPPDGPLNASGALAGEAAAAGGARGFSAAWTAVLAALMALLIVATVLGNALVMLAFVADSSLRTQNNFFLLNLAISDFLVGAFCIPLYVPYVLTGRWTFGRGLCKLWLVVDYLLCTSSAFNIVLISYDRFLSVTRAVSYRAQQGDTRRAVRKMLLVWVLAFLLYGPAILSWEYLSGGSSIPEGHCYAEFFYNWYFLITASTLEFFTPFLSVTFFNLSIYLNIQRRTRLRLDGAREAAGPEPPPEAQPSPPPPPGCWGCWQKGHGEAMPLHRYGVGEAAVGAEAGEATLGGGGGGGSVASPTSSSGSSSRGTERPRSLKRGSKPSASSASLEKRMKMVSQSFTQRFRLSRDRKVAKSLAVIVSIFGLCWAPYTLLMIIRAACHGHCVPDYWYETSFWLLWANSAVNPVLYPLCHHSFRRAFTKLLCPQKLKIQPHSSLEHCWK

[13] = molecular target: 5-hydroxytryptamine receptor 2B (Homo sapiens, UniProt P41595); assay: Agonist activity at human 5-HT2B receptor expressed in HEK293 cells assessed as increase in calcium mobilization by FLIPR assay relative to 5-HT; assay type: functional, cell-based
[14] = Displacement of [3H]Muscimol from GABAA receptor in rat brain after 1 to […] by scintillation counting analysis; assay type: tissue-based
[15] = molecular target: 5-hydroxytryptamine receptor 5A (Homo sapiens, UniProt P47898); assay: Displacement of [3H]LSD from human recombinant 5-HT5A receptor expressed in CHO cells coexpressing FLP-IN after 1 to […] by scintillation counting analysis; assay type: cell-based
Chain of 5-hydroxytryptamine receptor 5A (P47898 whole entry): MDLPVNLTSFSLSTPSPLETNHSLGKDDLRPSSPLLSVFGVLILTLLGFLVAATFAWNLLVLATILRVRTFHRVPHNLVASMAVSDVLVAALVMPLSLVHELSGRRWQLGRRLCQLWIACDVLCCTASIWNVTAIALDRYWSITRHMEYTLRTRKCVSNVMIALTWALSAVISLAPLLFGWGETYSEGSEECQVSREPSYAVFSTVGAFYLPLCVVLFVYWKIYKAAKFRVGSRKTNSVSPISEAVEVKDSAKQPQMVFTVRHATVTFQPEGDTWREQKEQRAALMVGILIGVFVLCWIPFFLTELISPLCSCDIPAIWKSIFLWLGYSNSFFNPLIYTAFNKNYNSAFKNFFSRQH

[16] = molecular target: Delta-type opioid receptor (Homo sapiens, UniProt P41143); assay: Displacement of [3H]DADLE from human recombinant delta opioid receptor receptor expressed in HEK293 cells after 1 to […] by scintillation counting analysis; assay type: cell-based
Chain of Delta-type opioid receptor (P41143 whole entry): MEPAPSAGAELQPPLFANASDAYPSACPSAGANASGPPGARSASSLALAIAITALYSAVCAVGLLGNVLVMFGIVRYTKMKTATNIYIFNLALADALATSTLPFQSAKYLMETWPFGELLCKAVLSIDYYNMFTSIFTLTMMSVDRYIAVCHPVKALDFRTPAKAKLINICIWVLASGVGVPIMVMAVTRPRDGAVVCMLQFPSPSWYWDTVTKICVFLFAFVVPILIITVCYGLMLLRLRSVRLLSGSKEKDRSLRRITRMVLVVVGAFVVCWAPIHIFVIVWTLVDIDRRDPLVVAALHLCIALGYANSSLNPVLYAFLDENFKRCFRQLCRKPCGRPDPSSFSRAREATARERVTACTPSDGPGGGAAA

[17] = molecular target: 5-hydroxytryptamine receptor 1D (Homo sapiens, UniProt P28221); assay: Displacement of [3H][…] from human recombinant 5-HT1D receptor expressed in HEK293T cells after 1 to […] by scintillation counting analysis; assay type: cell-based, HEK-293T
[18] = molecular target: Alpha-1D adrenergic receptor (Homo sapiens, UniProt P25100); assay: Displacement of [3H]Prazosin from human recombinant adrenergic alpha1D receptor expressed in HEK293 cells after 1 to […] by scintillation counting analysis; assay type: cell-based
Chain of Alpha-1D adrenergic receptor (P25100 whole entry): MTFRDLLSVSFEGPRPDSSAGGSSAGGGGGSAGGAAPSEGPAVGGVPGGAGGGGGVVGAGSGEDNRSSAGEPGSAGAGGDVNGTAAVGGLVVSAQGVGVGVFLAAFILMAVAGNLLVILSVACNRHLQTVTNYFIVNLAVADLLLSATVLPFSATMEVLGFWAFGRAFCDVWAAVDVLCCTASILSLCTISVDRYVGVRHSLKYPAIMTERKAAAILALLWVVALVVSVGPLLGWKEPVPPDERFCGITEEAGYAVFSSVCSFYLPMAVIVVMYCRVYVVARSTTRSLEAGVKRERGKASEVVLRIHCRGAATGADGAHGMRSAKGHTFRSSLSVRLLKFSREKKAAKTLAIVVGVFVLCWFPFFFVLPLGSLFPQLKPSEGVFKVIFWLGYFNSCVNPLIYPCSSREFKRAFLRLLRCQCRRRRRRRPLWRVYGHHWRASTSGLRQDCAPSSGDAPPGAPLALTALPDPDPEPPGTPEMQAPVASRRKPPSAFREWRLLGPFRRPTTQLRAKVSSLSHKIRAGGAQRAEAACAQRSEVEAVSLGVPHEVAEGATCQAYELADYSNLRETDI

[19] = molecular target: 5-hydroxytryptamine receptor 3A (Homo sapiens, UniProt P46098); assay: Displacement of [3H]LY278584 from human recombinant 5-HT3 receptor expressed in HEK293T cells after 1 to […] by scintillation counting analysis; assay type: cell-based, HEK-293T
Chain of 5-hydroxytryptamine receptor 3A (P46098 whole entry): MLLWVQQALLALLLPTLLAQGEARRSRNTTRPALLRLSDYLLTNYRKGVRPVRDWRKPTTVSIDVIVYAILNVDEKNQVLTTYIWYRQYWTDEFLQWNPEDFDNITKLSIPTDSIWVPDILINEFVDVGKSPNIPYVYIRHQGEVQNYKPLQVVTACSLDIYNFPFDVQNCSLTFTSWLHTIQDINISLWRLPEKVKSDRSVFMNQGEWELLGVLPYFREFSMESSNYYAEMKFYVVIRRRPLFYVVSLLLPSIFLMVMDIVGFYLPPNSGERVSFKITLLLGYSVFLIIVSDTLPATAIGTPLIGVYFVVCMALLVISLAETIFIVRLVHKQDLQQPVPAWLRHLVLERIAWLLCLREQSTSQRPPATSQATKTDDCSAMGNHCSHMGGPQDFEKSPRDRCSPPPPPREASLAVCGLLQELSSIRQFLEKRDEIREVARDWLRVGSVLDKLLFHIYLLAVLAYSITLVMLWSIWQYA

[20] = molecular target: Alpha-2A adrenergic receptor (Homo sapiens, UniProt P08913); assay: Displacement of [3H]Clonidine from human recombinant adrenergic alpha2A receptor expressed in MDCK cells after 1 to […] by scintillation counting analysis; assay type: cell-based
[21] = molecular target: Cannabinoid receptor 2 (Homo sapiens, UniProt P34972); assay: Displacement of [3H]CP55940 from human recombinant CB2 receptor expressed in HEK293 cells coexpressing FLP-IN after 1 to […] by scintillation counting analysis; assay type: cell-based
Chain of Cannabinoid receptor 2 (P34972 whole entry): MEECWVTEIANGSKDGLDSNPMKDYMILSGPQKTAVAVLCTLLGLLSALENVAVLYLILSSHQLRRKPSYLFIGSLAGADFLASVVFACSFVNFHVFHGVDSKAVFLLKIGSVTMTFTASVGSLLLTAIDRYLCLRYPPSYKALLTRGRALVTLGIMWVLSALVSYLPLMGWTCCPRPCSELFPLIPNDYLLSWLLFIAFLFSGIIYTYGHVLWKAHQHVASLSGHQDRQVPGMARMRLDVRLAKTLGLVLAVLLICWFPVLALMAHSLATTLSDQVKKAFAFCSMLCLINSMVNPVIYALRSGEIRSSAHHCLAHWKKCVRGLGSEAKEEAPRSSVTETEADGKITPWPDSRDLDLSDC

[22] = molecular target: Muscarinic acetylcholine receptor M4 (Homo sapiens, UniProt P08173); assay: Displacement of [3H]QNB from human recombinant muscarinic M4 receptor expressed in CHO cells after 1 to […] by scintillation counting analysis; assay type: cell-based
[23] = molecular target: Neuronal acetylcholine receptor; alpha4/beta2 (Homo sapiens, UniProt P17787+P43681); assay: Displacement of [3H]Epibatidine from human recombinant alpha4beta2 nACh receptor expressed in HEK293 cells after 1 to […] by scintillation counting analysis; assay type: cell-based
Chain of Neuronal acetylcholine receptor; alpha4/beta2 (P17787 whole entry): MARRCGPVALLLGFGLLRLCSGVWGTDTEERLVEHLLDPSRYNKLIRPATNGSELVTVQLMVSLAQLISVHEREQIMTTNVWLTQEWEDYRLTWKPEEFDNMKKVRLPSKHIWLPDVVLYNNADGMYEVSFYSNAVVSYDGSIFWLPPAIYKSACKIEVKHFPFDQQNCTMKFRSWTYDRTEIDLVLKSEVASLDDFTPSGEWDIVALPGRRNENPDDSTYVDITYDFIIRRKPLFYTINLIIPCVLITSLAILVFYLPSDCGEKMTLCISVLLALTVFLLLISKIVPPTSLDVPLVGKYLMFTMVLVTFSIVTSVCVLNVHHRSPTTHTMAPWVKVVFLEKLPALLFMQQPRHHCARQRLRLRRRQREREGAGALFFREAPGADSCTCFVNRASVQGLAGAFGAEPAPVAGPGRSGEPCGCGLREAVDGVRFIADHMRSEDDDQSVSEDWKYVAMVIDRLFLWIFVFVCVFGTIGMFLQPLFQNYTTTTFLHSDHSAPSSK
Chain of Neuronal acetylcholine receptor; alpha4/beta2 (P43681 whole entry): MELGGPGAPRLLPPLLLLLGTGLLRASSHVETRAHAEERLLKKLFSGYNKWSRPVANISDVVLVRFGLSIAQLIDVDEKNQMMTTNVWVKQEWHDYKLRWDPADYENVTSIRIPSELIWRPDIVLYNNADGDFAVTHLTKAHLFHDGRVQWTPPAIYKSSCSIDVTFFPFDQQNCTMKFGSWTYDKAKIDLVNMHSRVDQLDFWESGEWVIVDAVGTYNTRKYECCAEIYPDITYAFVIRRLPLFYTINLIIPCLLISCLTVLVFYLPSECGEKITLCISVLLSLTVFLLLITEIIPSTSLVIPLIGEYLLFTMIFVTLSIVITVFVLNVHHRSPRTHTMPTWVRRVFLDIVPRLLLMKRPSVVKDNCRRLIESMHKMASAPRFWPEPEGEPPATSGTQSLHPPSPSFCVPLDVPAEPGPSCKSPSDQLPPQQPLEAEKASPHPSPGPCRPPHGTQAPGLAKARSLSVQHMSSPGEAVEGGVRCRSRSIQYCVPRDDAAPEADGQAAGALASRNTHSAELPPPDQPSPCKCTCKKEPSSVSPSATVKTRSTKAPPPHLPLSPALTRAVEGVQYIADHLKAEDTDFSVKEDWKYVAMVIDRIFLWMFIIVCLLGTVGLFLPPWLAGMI

[24] = Displacement of [3H]Flunitrazepam from GABAA receptor benzodiazepine binding site in rat brain after 1 to […] by scintillation counting analysis; assay type: tissue-based
[25] = molecular target: 5-hydroxytryptamine receptor 7 (Homo sapiens, UniProt P34969); assay: Displacement of [3H]LSD from human recombinant 5-HT7 receptor expressed in HEK293 cells after 1 to […] by scintillation counting analysis; assay type: cell-based
Chain of 5-hydroxytryptamine receptor 7 (P34969 whole entry): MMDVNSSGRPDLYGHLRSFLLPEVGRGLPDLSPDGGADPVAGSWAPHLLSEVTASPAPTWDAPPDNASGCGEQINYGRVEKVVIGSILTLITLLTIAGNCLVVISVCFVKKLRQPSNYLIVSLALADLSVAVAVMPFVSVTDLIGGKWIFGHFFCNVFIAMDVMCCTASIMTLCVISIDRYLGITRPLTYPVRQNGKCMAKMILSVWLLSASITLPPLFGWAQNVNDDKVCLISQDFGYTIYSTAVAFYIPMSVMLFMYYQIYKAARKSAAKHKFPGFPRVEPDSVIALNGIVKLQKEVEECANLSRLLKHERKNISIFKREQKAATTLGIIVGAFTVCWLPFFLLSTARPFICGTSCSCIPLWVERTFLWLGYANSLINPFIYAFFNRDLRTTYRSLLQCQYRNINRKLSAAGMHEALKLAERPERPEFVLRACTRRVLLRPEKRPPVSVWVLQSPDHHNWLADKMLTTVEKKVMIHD

[26] = molecular target: T1, 5-hydroxytryptamine receptor 2C; assay: Displacement of [3H]Mesulergine from human recombinant 5-HT2C receptor expressed in HEK293 cells coexpressing FLP-IN after 1 to […] by scintillation counting analysis; assay type: cell-based
[27] = molecular target: Mu-type opioid receptor (Homo sapiens, UniProt P35372); assay: Displacement of [3H]DAMGO from human recombinant mu opioid receptor receptor expressed in HEK293 cells after 1 to […] by scintillation counting analysis; assay type: cell-based

C=CCN(CC=C)CCc1c[nH]c2ccc(OC)cc12
Ki [1]: > 10 µM | pKi [2]: < 5 | Ki [3]: > 10 µM | EC50 [4]: 0.0094 µM | Ki [5]: 0.175 µM | pKi [6]: < 5 | Ki [7]: 0.679 µM | Ki ([8]; read-out: Ki): 4.25 µM | Ki [9]: > 10 µM | Ki [10]: > 10 µM | Ki ([11]; read-out: Ki): 0.4 µM | Ki ([11]; read-out: pKi (converted)): 0.398 µM | Ki [12]: > 10 µM | Emax [13]: 95% | pKi [14]: < 5 | Ki [15]: > 10 µM | Ki [16]: > 10 µM | Ki [17]: 0.149 µM | Ki [18]: > 10 µM | Ki [19]: > 10 µM | Ki ([20]; read-out: pKi (converted)): > 10 µM | Ki [21]: > 10 µM | Ki [22]: > 10 µM | Ki [23]: > 10 µM | pKi [24]: < 5 | Ki [25]: 0.017 µM | Ki [26]: 1.74 µM | Ki [27]: > 10 µM

CC(N)Cc1c[nH]c2ccccc12 (stereo not given)
Ki [1]: > 10 µM | pKi [2]: < 5 | Ki [3]: > 10 µM | EC50 [4]: 0.107 µM | Ki [5]: 3.24 µM | pKi [6]: < 5 | Ki [7]: 1.13 µM | Ki ([8]; read-out: pKi (converted)): > 10 µM | Ki [9]: > 10 µM | Ki [10]: > 10 µM | Ki ([11]; read-out: pKi (converted)): > 10 µM | Ki [12]: > 10 µM | Emax [13]: 84% | pKi [14]: < 5 | Ki [15]: > 10 µM | Ki [16]: > 10 µM | Ki [17]: 1.79 µM | Ki [18]: > 10 µM | Ki [19]: > 10 µM | Ki ([20]; read-out: Ki): 0.635 µM | Ki [21]: > 10 µM | Ki [22]: > 10 µM | Ki [23]: > 10 µM | pKi [24]: < 5 | Ki [25]: 0.103 µM | Ki [26]: 0.166 µM | Ki [27]: > 10 µM
